Laboratory results as given in publication PMC10269622, “Blapstin, a Diapause-Specific Peptide-Like Peptide from the Chinese Medicinal Beetle Blaps rhynchopetera, Has Antifungal Function” (Microbiology Spectrum, 2023).
Values after ≈ are worked out from the molar mass of the structure shown.

Legend:
Assay in all cases: MIC, broth double dilution
C. albicans 0065 = assay type: cell-based, Candida albicans; conditions: 37°C, 16 h, absorbance at 600 nm, mean of three independent experiments
Protocol: (§1) The standard strain of C. albicans (ATCC 10231), three clinically isolated antibiotic-resistant strains (C. albicans 0065, C. albicans 0063, and C. albicans 6), E. coli (ATCC 8739), and S. aureus (ATCC 6538) were obtained from Kunming Medical University. T. rubrum was purchased from BeNa Culture Collection (BNCC, CAS no. 340195). Different strains of C. albicans, E. coli, and S. aureus were cultured with shaking at 37°C in YM medium and Luria-Bertani (LB) medium. T. rubrum was cultured at 28°C in potato dextrose agar (PDA) medium according to the manufacturer’s instructions.
(§2) According to CLSI protocols, the MIC is determined as a point where there is “zero detectable growth,” The MIC of blapstin against different fungal strains was determined by use of the double dilution method, namely, broth dilution determination. In brief, the different strains were grown in their corresponding media at 28°C or 37°C until they reached the exponential growth phase. Colistin E and fluconazole were used as positive controls. Blapstin was diluted to various concentrations in sterile saline: 100 μL of sterile saline was added to the second well of a sterile 96-well plate, and then 100 μL of blapstin was added to the first and second wells. The solution from the second well was double-diluted with sterile saline until the 11th well, from which 100 μL was removed. In the 12th well, no blapstin was added, and sterile saline was used as a negative control. Afterward, 100 μL of the diluted microbial solution was added to each well, followed by incubation at 37°C for 16 h. To assess the antifungal activity of blapstin against the T. rubrum strain, the spore germination rates were first determined microscopically with a hemocytometer. T. rubrum was diluted with normal saline to 1 × 10^5 CFU/mL and then incubated with various concentrations of blapstin at 28°C for 16 h. The absorbance at 600 nm was measured by a microplate reader (Epoch Etock; Biotek, USA) to estimate the inhibition of bacteria and fungi by blapstin.

C. albicans 6 = assay type: cell-based, Candida albicans; conditions: 37°C, 16 h, absorbance at 600 nm, mean of three independent experiments
Protocol: as §1, §2

C. albicans 0063 = assay type: cell-based, Candida albicans; conditions: 37°C, 16 h, absorbance at 600 nm, mean of three independent experiments
Protocol: as §1, §2

[1] = system: Candida albicans ATCC 10231; assay type: cell-based; conditions: 96-well plate, 37°C, 16 h, absorbance at 600 nm, mean of three independent experiments
Protocol: as §1, §2

Trichophyton rubrum = assay type: cell-based; conditions: 1 × 10^5 CFU/mL, 28°C, 16 h, absorbance at 600 nm, mean of three independent experiments, ND = no bacteriostatic activity
Protocol: as §1, §2

[2] = system: Staphylococcus aureus ATCC 6538; assay type: cell-based; conditions: 96-well plate, 37°C, 16 h, absorbance at 600 nm, mean of three independent experiments, ND = no bacteriostatic activity
Protocol: as §1, §2

[3] = system: Escherichia coli ATCC 8739; assay type: cell-based; conditions: 96-well plate, 37°C, 16 h, absorbance at 600 nm, mean of three independent experiments, ND = no bacteriostatic activity
Protocol: as §1, §2

[4] = clinically isolated antibiotic-resistant strain

Row | Molecule | MIC (C. albicans 0065; Candida albicans, 0065, clinically isolated antibiotic-resistant strain) | MIC (C. albicans 6; Candida albicans, 6, clinically isolated antibiotic-resistant strain) | MIC (C. albicans 0063; Candida albicans, 0063, clinically isolated antibiotic-resistant strain) | MIC ([1]; Candida albicans, ATCC10231, standard strain) | MIC (Trichophyton rubrum) | MIC (C. albicans 0065; [4]) | MIC (C. albicans 6; [4]) | MIC (C. albicans 0063; [4]) | MIC [2] | MIC ([1]; standard strain) | MIC [3]
1 | OC(Cn1cncn1)(Cn1cncn1)c1ccc(F)cc1F [Fluconazole] | 70 µM (≈ 21.4 µg/mL) | 61 µM (≈ 18.7 µg/mL) | 61 µM (≈ 18.7 µg/mL) | 15 µM (≈ 4.59 µg/mL) | 12.2 µM (≈ 3.74 µg/mL) | – | – | – | – | – | –
2 | Colistin E | – | – | – | – | – | 5.4 µM | 1.1 µM | 5.4 µM | 81.1 µM | 22 µM | 3 µM
